Assay [1] deals with CAKI-1. Nature of the assay: Cytotoxicity against human CAKI-1 cells assessed as reduction in cell viability after 48 hrs by MTT assay. The settings on record: CAKI-1, 48 h.
For assay [2], the system named is A498. The assay can be described thus: Cytotoxicity against human A498 cells assessed as reduction in cell viability after 48 hrs by MTT assay. The settings on record: A498, 48 h.
Assay [3] in a line: Cytotoxicity against human RPTEC/TERT1 cells assessed as reduction in cell viability after 48 hrs by MTT assay. A general note: Tetrazolium assays rely on reduction of a dye to a coloured formazan, in cell work by metabolically active cells.

Turning to `O=C1/C(=N\N=c2\[nH]c(-c3ccc([N+](=O)[O-])cc3)cs2)c2cc(Cl)ccc2N1Cc1ccccc1`, the IC50 is 5.78 µM in assay [1] and 24.7 µM in assay [2].
In the case of `CC(=O)c1s/c(=N\N=C2/C(=O)N(Cc3ccccc3)c3ccc(Cl)cc32)[nH]c1C`, the half-maximal inhibitory concentration (IC50) in assay [1] amounted to 12.8 µM; in assay [2], 6.27 µM.
Taken in the same sequence, the figures for `CCOC(=O)/C(=N/Nc1ccc(C)cc1)S/C(N)=N\N=C1/C(=O)N(Cc2ccccc2)c2ccc(Cl)cc21` were 3.9 µM and 2.88 µM.
As for `CCOC(=O)c1s/c(=N\N=C2/C(=O)N(Cc3ccccc3)c3ccc(Cl)cc32)[nH]c1C`, the concentration for half-maximal inhibition (IC50) in assay [3] stood at 49.8 µM; in assay [1], 3.31 µM; in assay [2], 1.23 µM.
On to `O=C1CS/C(=N\N=C2/C(=O)N(Cc3ccccc3)c3ccc(Cl)cc32)N1`, for which the figures for the concentration for half-maximal inhibition (IC50) in assay [1] and in assay [2] were 35.6 µM and 3.45 µM, respectively.
In the case of `NC1=NNC(=O)/C1=C1/C(=O)N(Cc2ccccc2)c2ccc(Cl)cc21`, the 50% inhibitory concentration (IC50) came out at 0.82 µM in assay [1] and 8.53 µM in assay [2].
With `CCN(CC)CCNC(=O)c1c(C)[nH]c(/C=C2\C(=O)Nc3ccc(F)cc32)c1C` [SUNITINIB], the concentration for half-maximal inhibition (IC50) in assay [3] is 16.9 µM; in assay [1] it was 4.93 µM; in assay [2], 1.25 µM.

In general, IC50 refers to the midpoint of a concentration-inhibition curve.

These data come from ChEMBL document CHEMBL4706585, “Novel 2-indolinone thiazole hybrids as sunitinib analogues: Design, synthesis, and potent VEGFR-2 inhibition with potential anti-renal cancer activity” (Eur J Med Chem, 2020).
